Reference: patent publication US20240124441A1, “POLYMORPH OF LATREPIRDINE DIHYDROCHLORIDE” (BIGESPAS LTD., priority 2021, published 2024)
Like-named read-outs stand apart in the source and are kept apart here.

Legend:
[1] = Bioavailability study: Latrepirdine concentration in blood serum after oro-gastric gavage
Experimental: (§1) Those crystalline polymorphs and DMB-I were used in an animal study to evaluate absorption of crystalline forms of Latrepirdine from gastrointestinal tract into blood serum and brain tissues of the animals. Male Wistar rats were used in animal study. Rats were randomly divided into 5 groups, each group containing 28 animals, for administration of respective polymorphic forms of Latrepirdine. Respective polymorphic form of Latrepirdine was administered by oro-gastric gavage as a suspension in corn oil at a dose of 10 mg/kg. Animals were euthanized at 15, 30, 60, and 120 min after administration of Latrepirdine (7 animals at each timepoint) followed by collection of blood serum and brain tissue samples that were analyzed for Latrepirdine content by LCMS. Analyses were performed using Prominence LCMS-850 equipped with Kinetex C18 Phenomenex column. Statistical bi-factorial ANOVA analysis of analytical data was performed using Statistica-7.1. software.

[2] = Bioavailability study: Latrepirdine concentration in brain tissue after oro-gastric gavage; conditions: for Concentration of Latrepirdine in brain tissue: 10 mg/kg oro-gastric gavage, suspension in corn oil, rat, 10 mg/kg
Experimental: as §1

[3] = rat, in vivo, po
Experimental: as §1

[4] = rat, in vivo, po; remark: listed apart in the source
Experimental: as §1

## Cc1ccc2c(c1)c1c(n2CCc2ccc(C)nc2)CCN(C)C1 [Polymorph A, 2,8-dimethyl-5-[2-(6-methylpyridin-3-yl)ethyl]-3,4-dihydro-1H-pyrido[4,3-b]indole]
[1]; 15 min after administration, 10 mg/kg oro-gastric gavage, suspension in corn oil, rat, listed as A, 10 mg/kg
  Concentration of Latrepirdine in blood serum: 2.0 ng/mL
[1]; 60 min after administration, 10 mg/kg oro-gastric gavage, suspension in corn oil, rat, listed as A, 10 mg/kg
  Concentration of Latrepirdine in blood serum: 3.9 ng/mL
[1]; 120 min after administration, 10 mg/kg oro-gastric gavage, suspension in corn oil, rat, listed as A, 10 mg/kg
  Concentration of Latrepirdine in blood serum: 2.0 ng/mL
[1]; male, Wistar, rat, serum, oral, 10 mg/kg, Concentration of Latrepirdine in blood serum, 30 min after administration, 10 mg/kg oro-gastric gavage, suspension in corn oil, rat
  concentration at 30 min: 7 ng/mL
[2]; 15 min after administration, listed as A
  Concentration of Latrepirdine in brain tissue: 22.4 ng/mL
[2]; 30 min after administration, listed as A
  Concentration of Latrepirdine in brain tissue: 5.6 ng/mL
[2]; 60 min after administration, listed as A
  Concentration of Latrepirdine in brain tissue: 76.8 ng/mL
[2]; 120 min after administration, listed as A
  Concentration of Latrepirdine in brain tissue: 24.4 ng/mL

## Cc1ccc2c(c1)c1c(n2CCc2ccc(C)nc2)CCN(C)C1 [Polymorph B, 2,8-dimethyl-5-[2-(6-methylpyridin-3-yl)ethyl]-3,4-dihydro-1H-pyrido[4,3-b]indole]
[1]; 15 min after administration, 10 mg/kg oro-gastric gavage, suspension in corn oil, rat, listed as B, 10 mg/kg
  Concentration of Latrepirdine in blood serum: 5.9 ng/mL
[1]; 30 min after administration, 10 mg/kg oro-gastric gavage, suspension in corn oil, rat, listed as B, 10 mg/kg
  Concentration of Latrepirdine in blood serum: 5.6 ng/mL
[1]; 60 min after administration, 10 mg/kg oro-gastric gavage, suspension in corn oil, rat, listed as B, 10 mg/kg
  Concentration of Latrepirdine in blood serum: 7.4 ng/mL
[1]; 120 min after administration, 10 mg/kg oro-gastric gavage, suspension in corn oil, rat, listed as B, 10 mg/kg
  Concentration of Latrepirdine in blood serum: 1.0 ng/mL
[2]; 15 min after administration, listed as B
  Concentration of Latrepirdine in brain tissue: 23.5 ng/mL
[2]; 30 min after administration, listed as B
  Concentration of Latrepirdine in brain tissue: 34.2 ng/mL
[2]; 60 min after administration, listed as B
  Concentration of Latrepirdine in brain tissue: 54.4 ng/mL
[2]; 120 min after administration, listed as B
  Concentration of Latrepirdine in brain tissue: 29.7 ng/mL

## Cc1ccc2c(c1)c1c(n2CCc2ccc(C)nc2)CCN(C)C1 [Polymorph C, 2,8-dimethyl-5-[2-(6-methylpyridin-3-yl)ethyl]-3,4-dihydro-1H-pyrido[4,3-b]indole]
[1]; 15 min after administration, 10 mg/kg oro-gastric gavage, suspension in corn oil, rat, listed as C, 10 mg/kg
  Concentration of Latrepirdine in blood serum: 7.4 ng/mL
[1]; 30 min after administration, 10 mg/kg oro-gastric gavage, suspension in corn oil, rat, listed as C, 10 mg/kg
  Concentration of Latrepirdine in blood serum: 6.8 ng/mL
[1]; 60 min after administration, 10 mg/kg oro-gastric gavage, suspension in corn oil, rat, listed as C, 10 mg/kg
  Concentration of Latrepirdine in blood serum: 6.7 ng/mL
[1]; 120 min after administration, 10 mg/kg oro-gastric gavage, suspension in corn oil, rat, listed as C, 10 mg/kg
  Concentration of Latrepirdine in blood serum: 7.0 ng/mL
[2]; 15 min after administration, listed as C
  Concentration of Latrepirdine in brain tissue: 25.1 ng/mL
[2]; 30 min after administration, listed as C
  Concentration of Latrepirdine in brain tissue: 15.0 ng/mL
[2]; 60 min after administration, listed as C
  Concentration of Latrepirdine in brain tissue: 32.1 ng/mL
[2]; 120 min after administration, listed as C
  Concentration of Latrepirdine in brain tissue: 39.1 ng/mL

## Cc1ccc2c(c1)c1c(n2CCc2ccc(C)nc2)CCN(C)C1 [Polymorph DMB-I, 2,8-dimethyl-5-[2-(6-methylpyridin-3-yl)ethyl]-3,4-dihydro-1H-pyrido[4,3-b]indole]
[1]; 15 min after administration, 10 mg/kg oro-gastric gavage, suspension in corn oil, rat, listed as DMB-I, 10 mg/kg
  Concentration of Latrepirdine in blood serum: 12.8 ng/mL
[1]; 30 min after administration, 10 mg/kg oro-gastric gavage, suspension in corn oil, rat, listed as DMB-I, 10 mg/kg
  Concentration of Latrepirdine in blood serum: 10.0 ng/mL
[1]; 60 min after administration, 10 mg/kg oro-gastric gavage, suspension in corn oil, rat, listed as DMB-I, 10 mg/kg
  Concentration of Latrepirdine in blood serum: 9.7 ng/mL
[1]; 120 min after administration, 10 mg/kg oro-gastric gavage, suspension in corn oil, rat, listed as DMB-I, 10 mg/kg
  Concentration of Latrepirdine in blood serum: 10.4 ng/mL
[1]; blood plasma, intragastric administration, versus the other four polymorphic forms
  Cmax exceeds the Cmax of other polymorphic forms by: 12-240%
[1]; male, Wistar, rat, plasma, po, 10 mg/kg
  Tmax: 15 min
[3]
  Median values of Cmax compared among the five tested polymorphic forms: highest value
[2]; 15 min after administration, listed as DMB-I
  Concentration of Latrepirdine in brain tissue: 45.1 ng/mL
[2]; 30 min after administration, listed as DMB-I
  Concentration of Latrepirdine in brain tissue: 26.8 ng/mL
[2]; 60 min after administration, listed as DMB-I
  Concentration of Latrepirdine in brain tissue: 106.0 ng/mL
[2]; 120 min after administration, listed as DMB-I
  Concentration of Latrepirdine in brain tissue: 49.8 ng/mL
[2]; brain tissue, intragastric administration, versus the other four polymorphic forms
  Cmax exceeds the Cmax of other polymorphic forms by: 32-260%
[4]
  Median values of Cmax compared among the five tested polymorphic forms: highest value

## Cc1ccc2c(c1)c1c(n2CCc2ccc(C)nc2)CCN(C)C1 [Polymorph F, 2,8-dimethyl-5-[2-(6-methylpyridin-3-yl)ethyl]-3,4-dihydro-1H-pyrido[4,3-b]indole]
[1]; 15 min after administration, 10 mg/kg oro-gastric gavage, suspension in corn oil, rat, listed as F, 10 mg/kg
  Concentration of Latrepirdine in blood serum: 4.8 ng/mL
[1]; 30 min after administration, 10 mg/kg oro-gastric gavage, suspension in corn oil, rat, listed as F, 10 mg/kg
  Concentration of Latrepirdine in blood serum: 6.3 ng/mL
[1]; 60 min after administration, 10 mg/kg oro-gastric gavage, suspension in corn oil, rat, listed as F, 10 mg/kg
  Concentration of Latrepirdine in blood serum: 9.4 ng/mL
[1]; 120 min after administration, 10 mg/kg oro-gastric gavage, suspension in corn oil, rat, listed as F, 10 mg/kg
  Concentration of Latrepirdine in blood serum: 3.6 ng/mL
[2]; 15 min after administration, listed as F
  Concentration of Latrepirdine in brain tissue: 20.2 ng/mL
[2]; 30 min after administration, listed as F
  Concentration of Latrepirdine in brain tissue: 32.2 ng/mL
[2]; 60 min after administration, listed as F
  Concentration of Latrepirdine in brain tissue: 68.5 ng/mL
[2]; 120 min after administration, listed as F
  Concentration of Latrepirdine in brain tissue: 45.1 ng/mL
